Measured values: US12186283B2, “Bismuth-thiol compositions and methods of use” (Microbion Corporation, priority 2018, dated 2025)
Marks after values point to notes of the source that are not given here.

Assays:
Type in all cases: cell-based
[1] = system: Aspergillus spp.; experiment: Broth microdilution MIC/MEC, mold (Example 13); settings: for MIC0 (complete inhibition): comparators, read time not given
[2] = system: Candida glabrata; experiment: Broth microdilution MIC, yeast (Example 13)
[3] = system: Candida albicans; experiment: Broth microdilution MIC, yeast (Example 13)
[4] = system: Candida krusei; experiment: Broth microdilution MIC, yeast (Example 13)
[5] = system: Candida auris; experiment: Broth microdilution MIC, yeast (Example 13)
[6] = Candida glabrata ATCC 90030, Susceptible
[7] = Candida glabrata ATCC MYA-2950, Susceptible
[8] = Candida glabrata MMX 7087, Susceptible
[9] = Candida glabrata MMX 7093, FLU-R
[10] = Candida glabrata MMX 7101, FLU-R
[11] = Candida glabrata MMX 7103, CASP-R, MICA-R
[12] = Candida glabrata MMX 7111, Susceptible
[13] = Candida glabrata MMX 7285, CASP-R, MICA-R
[14] = Candida glabrata MMX 7307, CASP-R, MICA-R, FLU-R
[15] = Candida glabrata MMX 7549, Susceptible
[16] = Candida albicans ATCC 90028, Susceptible, 24 hr
[17] = Candida albicans ATCC 204276, MICA-R, 24 hr
[18] = Candida albicans ATCC MYA-2732, FLU-R, VORI-I, 24 hr
[19] = Candida albicans MMX 7053, Susceptible, 24 hr
[20] = Candida albicans MMX 7067, FLU-R, VORI-R, 24 hr
[21] = Candida albicans MMX 7403, Susceptible, 24 hr
[22] = Candida albicans MMX 7424, CASP-R, MICA-R, 24 hr
[23] = Candida albicans MMX 7430, Susceptible, 24 hr
[24] = Candida albicans MMX 7437, FLU-I, 24 hr
[25] = C. krusei ATCC 14243, Susceptible
[26] = C. krusei ATCC 96685, Susceptible
[27] = C. krusei MMX 7125, Susceptible
[28] = C. krusei MMX 7128, Susceptible
[29] = C. krusei MMX 7141, Susceptible
[30] = C. krusei MMX 7155, Susceptible
[31] = C. krusei MMX 7563, Susceptible
[32] = C. krusei MMX 9878, MICA-I, VORI-I
[33] = C. auris MMX 9863, FLU-R, VORI-R
[34] = C. auris MMX 9864, FLU-R, VORI-R
[35] = C. auris MMX 9865, FLU-R, VORI-R
[36] = C. auris MMX 9866, FLU-R, VORI-R
[37] = C. auris MMX 9867, FLU-R, VORI-R
[38] = C. auris MMX 9868, FLU-R, VORI-R
[39] = C. auris MMX 9869, FLU-R, VORI-R
[40] = C. auris MMX 9870, FLU-R, VORI-R

With `CC[C@H](C)C[C@H](C)CCCCCCCCC(=O)N[C@H]1C[C@@H](O)[C@@H](NCCN)NC(=O)[C@@H]2[C@@H](O)CCN2C(=O)[C@H]([C@H](O)CCN)NC(=O)[C@H]([C@H](O)[C@@H](O)c2ccc(O)cc2)NC(=O)[C@@H]2C[C@@H](O)CN2C(=O)[C@H]([C@@H](C)O)NC1=O` [CASP] the “MEC (minimum effective concentration)” value ([1]; A. flavus ATCC 22546) was 0.06 µg/mL, the “MEC (minimum effective concentration)” value ([1]; A. flavus ATCC 204304) was 0.06 µg/mL and the “MEC (minimum effective concentration)” value ([1]; A. flavus MMX 7935) was 0.03 µg/mL. For the same compound, the “MEC (minimum effective concentration)” value ([1]; A. fumigatus ATCC 204305) was 0.25 µg/mL, the “MEC (minimum effective concentration)” value ([1]; A. fumigatus ATCC MYA-3626) was 0.06 µg/mL and the “MEC (minimum effective concentration)” value ([1]; A. fumigatus MMX 5934) was 0.12 µg/mL. For the same compound, the “MEC (minimum effective concentration)” value ([1]; A. fumigatus MMX 5938, 48 hr only, insufficient growth for 24 hr read) was 0.12^b μg/mL, the “MEC (minimum effective concentration)” value ([1]; A. fumigatus MMX 5939) was 0.12 µg/mL and the “MEC (minimum effective concentration)” value ([1]; A. niger ATCC 29508, 48 hr only, insufficient growth for 24 hr read) was 0.06^b μg/mL. The “MEC (minimum effective concentration)” value ([1]; A. terreus MMX 8229, 48 hr only, insufficient growth for 24 hr read) was 0.12^b μg/mL, the “MIC2 (50% inhibition)” value [2, 6] was 0.12 µg/mL and the “MIC2 (50% inhibition)” value [2, 7] was 0.12 µg/mL. The “MIC2 (50% inhibition)” value [2, 8] was 0.12 µg/mL, the “MIC2 (50% inhibition)” value [2, 9] was 0.12 µg/mL and the “MIC2 (50% inhibition)” value [2, 10] was 0.12 µg/mL. The “MIC2 (50% inhibition)” value [2, 11] was greater than 8 µg/mL, the “MIC2 (50% inhibition)” value [2, 12] was 0.12 µg/mL and the “MIC2 (50% inhibition)” value [2, 13] was 0.5 µg/mL. For the same compound, the “MIC2 (50% inhibition)” value [2, 14] was greater than 8 µg/mL, the “MIC2 (50% inhibition)” value [2, 15] was 0.06 µg/mL and the “MIC2 (50% inhibition)” value [3, 16] was 0.06 µg/mL. For the same compound, the “MIC2 (50% inhibition)” value [3, 17] was 0.25 µg/mL, the “MIC2 (50% inhibition)” value [3, 18] was 0.06 µg/mL and the “MIC2 (50% inhibition)” value [3, 19] was 0.06 µg/mL. For the same compound, the “MIC2 (50% inhibition)” value [3, 20] was 0.06 µg/mL, the “MIC2 (50% inhibition)” value [3, 21] was 0.06 µg/mL and the “MIC2 (50% inhibition)” value [3, 22] was 8 µg/mL. The “MIC2 (50% inhibition)” value [3, 23] was 0.06 µg/mL, the “MIC2 (50% inhibition)” value [3, 24] was 0.06 µg/mL and the “MIC2 (50% inhibition)” value ([3]; Candida albicans MMX 7445, FLU-R, VORI-R, result after 48 hr incubation (insufficient growth at 24 hr)) was 0.06^a μg/mL. For the same compound, the “MIC2 (50% inhibition)” value ([4]; C. krusei ATCC 6258, MICA-I) was 0.25 µg/mL, the “MIC2 (50% inhibition)” value [4, 25] was 0.012 µg/mL and the “MIC2 (50% inhibition)” value [4, 26] was 0.12 µg/mL. The “MIC2 (50% inhibition)” value [4, 27] was 0.25 µg/mL, the “MIC2 (50% inhibition)” value [4, 28] was 0.25 µg/mL and the “MIC2 (50% inhibition)” value [4, 29] was 0.25 µg/mL. The “MIC2 (50% inhibition)” value ([4]; C. krusei MMX 7153, MICA-R) was 0.25 µg/mL, the “MIC2 (50% inhibition)” value [4, 30] was 0.25 µg/mL and the “MIC2 (50% inhibition)” value [4, 31] was 0.12 µg/mL. The “MIC2 (50% inhibition)” value [4, 32] was 0.25 µg/mL, the “MIC2 (50% inhibition)” value ([5]; C. auris MMX 9862, Susceptible) was 0.12 µg/mL and the “MIC2 (50% inhibition)” value [5, 33] was 0.12^b μg/mL. The “MIC2 (50% inhibition)” value [5, 34] was 0.25^b μg/mL, the “MIC2 (50% inhibition)” value [5, 35] was 0.25^b μg/mL and the “MIC2 (50% inhibition)” value [5, 36] was 0.12^b μg/mL. The “MIC2 (50% inhibition)” value [5, 37] was 0.12 µg/mL, the “MIC2 (50% inhibition)” value [5, 38] was 0.25 µg/mL and the “MIC2 (50% inhibition)” value [5, 39] was 0.25 µg/mL. The “MIC2 (50% inhibition)” value [5, 40] was 0.25 µg/mL and the “MIC2 (50% inhibition)” value ([5]; C. auris MMX 9871, Susceptible) was 0.25^b μg/mL.

For `C[C@@H]1[C@H](O)[C@@H](C)/C=C/C=C/C=C/C=C/C=C/C=C/C=C/[C@H](O[C@@H]2O[C@H](C)[C@@H](O)[C@H](N)[C@@H]2O)C[C@@H]2O[C@](O)(C[C@@H](O)C[C@@H](O)[C@H](O)CC[C@@H](O)C[C@@H](O)CC(=O)O[C@H]1C)C[C@H](O)[C@H]2C(=O)O` [AMP B], the “MIC0 (complete inhibition)” value ([1]; A. flavus ATCC 22546) was 1 µg/mL, the “MIC0 (complete inhibition)” value ([1]; A. flavus ATCC 204304) was 1 µg/mL and the “MIC0 (complete inhibition)” value ([1]; A. flavus MMX 7935) was 1 µg/mL. The “MIC0 (complete inhibition)” value ([1]; A. fumigatus ATCC 204305) was 1 µg/mL, the “MIC0 (complete inhibition)” value ([1]; A. fumigatus ATCC MYA-3626) was 1 µg/mL and the “MIC0 (complete inhibition)” value ([1]; A. fumigatus MMX 5934) was 1 µg/mL. The “MIC0 (complete inhibition)” value ([1]; A. fumigatus MMX 5938) was 1 µg/mL, the “MIC0 (complete inhibition)” value ([1]; A. fumigatus MMX 5939) was 1 µg/mL and the “MIC0 (complete inhibition)” value ([1]; A. niger ATCC 29508) was 0.25 µg/mL. For the same compound, the “MIC0 (complete inhibition)” value ([1]; A. terreus MMX 8229) was 0.25 µg/mL, the “MIC0 (complete inhibition)” value [2, 6] was 0.25 µg/mL and the “MIC0 (complete inhibition)” value [2, 7] was 0.12 µg/mL. The “MIC0 (complete inhibition)” value [2, 8] was 0.12 µg/mL, the “MIC0 (complete inhibition)” value [2, 9] was 0.25 µg/mL and the “MIC0 (complete inhibition)” value [2, 10] was 0.25 µg/mL. For the same compound, the “MIC0 (complete inhibition)” value [2, 11] was 0.25 µg/mL, the “MIC0 (complete inhibition)” value [2, 12] was 0.25 µg/mL and the “MIC0 (complete inhibition)” value [2, 13] was 0.25 µg/mL. For the same compound, the “MIC0 (complete inhibition)” value [2, 14] was 0.25 µg/mL, the “MIC0 (complete inhibition)” value [2, 15] was 0.25 µg/mL and the “MIC0 (complete inhibition)” value [3, 16] was 0.25 µg/mL. For the same compound, the “MIC0 (complete inhibition)” value [3, 17] was 0.25 µg/mL, the “MIC0 (complete inhibition)” value [3, 18] was 0.25 µg/mL and the “MIC0 (complete inhibition)” value [3, 19] was 0.12 µg/mL. For the same compound, the “MIC0 (complete inhibition)” value [3, 20] was 0.25 µg/mL, the “MIC0 (complete inhibition)” value [3, 21] was 0.25 µg/mL and the “MIC0 (complete inhibition)” value [3, 22] was 0.25 µg/mL. For the same compound, the “MIC0 (complete inhibition)” value [3, 23] was 0.25 µg/mL, the “MIC0 (complete inhibition)” value [3, 24] was 0.25 µg/mL and the “MIC0 (complete inhibition)” value ([3]; Candida albicans MMX 7445, FLU-R, VORI-R, 24 hr) was 0.12 µg/mL. The “MIC0 (complete inhibition)” value ([4]; C. krusei ATCC 6258, MICA-I) was 0.5 µg/mL, the “MIC0 (complete inhibition)” value [4, 25] was 0.25 µg/mL and the “MIC0 (complete inhibition)” value [4, 26] was 0.5 µg/mL. The “MIC0 (complete inhibition)” value [4, 27] was 0.5 µg/mL, the “MIC0 (complete inhibition)” value [4, 28] was 0.5 µg/mL and the “MIC0 (complete inhibition)” value [4, 29] was 0.25 µg/mL. For the same compound, the “MIC0 (complete inhibition)” value ([4]; C. krusei MMX 7153, MICA-R) was 0.5 µg/mL, the “MIC0 (complete inhibition)” value [4, 30] was 0.25 µg/mL and the “MIC0 (complete inhibition)” value [4, 31] was 0.5 µg/mL. The “MIC0 (complete inhibition)” value [4, 32] was 0.5 µg/mL, the “MIC0 (complete inhibition)” value ([5]; C. auris MMX 9862, Susceptible) was 0.25 µg/mL and the “MIC0 (complete inhibition)” value [5, 33] was 0.12 µg/mL. For the same compound, the “MIC0 (complete inhibition)” value [5, 34] was 0.25 µg/mL, the “MIC0 (complete inhibition)” value [5, 35] was 0.25 µg/mL and the “MIC0 (complete inhibition)” value [5, 36] was 0.5 µg/mL. For the same compound, the “MIC0 (complete inhibition)” value [5, 37] was 0.5 µg/mL, the “MIC0 (complete inhibition)” value [5, 38] was 0.25 µg/mL and the “MIC0 (complete inhibition)” value [5, 39] was 1 µg/mL. For the same compound, the “MIC0 (complete inhibition)” value [5, 40] was 1 µg/mL and the “MIC0 (complete inhibition)” value ([5]; C. auris MMX 9871, Susceptible) was 1 µg/mL.
